In US8940739B2, “Compound of a reverse-turn mimetic and a production method and use therefor” (JW Pharmaceutical Corporation, priority 2010, dated 2015):
Values after ≈ are worked out from the molar mass of the structure shown.

Columns and labels:
[1] = system: MV-4-11 (human, Acute Myeloid Leukemia cell line) cells; test: Cell growth inhibition assay, GI50 of MV-4-11; type: cell-based; conditions: Homo sapiens, MV4-11, 72 h, MV-4-11 cells
How it was run: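 GI50 derived from 490 nm absorbance using CellTiter 96 Aqueous One reagent, with compound-free medium providing the background. Human AML MV-4-11 cells, seeded at 5×10^4 per well in IMDM/10% FBS, incubated 72 h at 37 °C with duplicate serial dilutions of test compound.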

[2] = target: cDNA-expressed human hepatic CYP3A4 (Homo sapiens (Human), UniProt P08684); test: Measurement of CYP (IC50 of P450 CYP3A4), BFC substrate; type: in vitro ADME; conditions: 20 minutes
How it was run: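 cDNA-expressed human CYP3A4 supersomes in 0.1M potassium phosphate pH 7.4 with 8.3 mM MgCl2, 1.67 mM EDTA and 0.25 mM NADPH; compounds in acetonitrile (<1% final). Reaction started with 30 µM BFC, 20 min at 37. 7-Hydroxy-4-trifluoromethyl-coumarin read by fluorescence (ex 409/em 530 nm).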

[3] = MLM, hepatic metabolic stability; type: in vitro ADME; conditions: mouse hepatic microsome, amount at 30 minutes compared with 0 minutes
Experimental: For the sake of retaining efficacy of novel drugs and preventing side-effects, hepatic metabolic stability is regarded as very important. Hepatic metabolic stability is typically determined using microsome or S9. In the present test, a microsome having CYP450 as a main component, which plays a great role in metabolism, was used to evaluate the metabolic stability.
This assay was performed in a 200 l volume in a 13 ml glass tube using mouse hepatic microsome whose activity was measured.
The compounds of Examples 1 to 5 were dissolved in DMSO (dimethyl sulfoxide) to prepare a 25 mM stock solution, which was then diluted with 50% acetonitrile and used in the test. A potassium phosphate buffer (pH 7.4, final concentration 0.1M), MgCl2 (final concentration 0.1M), a diluted inventive compound stock solution (final concentration 1 mM), and a mouse microsome (final concentration 5 mg/ml) were added to the glass tube. The reaction was initiated by the addition of a cofactor NADPH (final concentration 12.5 mM) after pre-incubation at 37 for 3 minutes. The reaction was carried out at 37 for 10 minutes and 30 minutes, and then terminated with 1000 μl of acetonitrile, and the remaining inventive compound was extracted. The centrifugation was conducted at 3000 rpm for 10 minutes, after which the supernatant was dried and dissolved again in 150 μl of 50% acetonitrile and quantitatively analyzed by HPLC. 0 minutes and 30 minutes after reaction, the amounts of the compounds of the present invention were compared thus evaluating the extent of metabolic stability.

[4] = Solubility in physiological saline; type: physicochemical; conditions: saline or isotonic, thermodynamic from solid, 10 mg in 0.25 ml
Experimental: 2) Evaluation of Solubility of Compound E-5
Compound E-5, Compound E-5•HCl, and Compound E-5•H2SO4 were respectively weighed to 10 mg, and 0.25 ml of physiological saline was added, and they were vortex mixed. The supernatant was filtered with a 0.22 μm filter and quantitatively analyzed by HPLC.

[5] = Blood drug concentration upon intravenous administration; type: in vivo; conditions: SD rat, 12.5 mg/kg
Experimental: Compound E-5 was intravenously injected in 12.5 mg/kg to SD rat. 5, 15, 30, […], 120, 240, 1140 minutes after injection, the blood was taken and the drug concentration in the blood was quantitatively analyzed using an analyzer HPLC/MS/MS.

Sequence of cDNA-expressed human hepatic CYP3A4 (P08684 whole entry): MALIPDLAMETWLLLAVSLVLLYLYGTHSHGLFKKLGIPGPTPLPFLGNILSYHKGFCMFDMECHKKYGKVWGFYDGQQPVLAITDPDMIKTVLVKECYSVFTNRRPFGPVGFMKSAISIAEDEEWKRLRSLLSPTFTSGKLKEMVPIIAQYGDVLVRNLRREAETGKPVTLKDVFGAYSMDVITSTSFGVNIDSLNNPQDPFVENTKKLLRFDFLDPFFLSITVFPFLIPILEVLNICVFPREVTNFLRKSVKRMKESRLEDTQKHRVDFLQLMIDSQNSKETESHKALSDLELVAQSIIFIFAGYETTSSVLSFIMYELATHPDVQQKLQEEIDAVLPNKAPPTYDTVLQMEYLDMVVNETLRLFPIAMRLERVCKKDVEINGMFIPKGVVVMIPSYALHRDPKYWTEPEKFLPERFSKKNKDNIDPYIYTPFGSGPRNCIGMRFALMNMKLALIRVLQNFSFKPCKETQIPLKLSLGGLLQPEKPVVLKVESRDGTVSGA

Compound | GI50 [1] | IC50 [2] | MLM (%) [3] | solubility [4] | AUC [5] | half-life ([5]; read-out: Half-life (t ½, hr) (converted))
C=CCN1CC(=O)N2[C@@H](Cc3ccc(O)cc3)C(=O)N(Cc3cccc4c(C(=O)Nc5ccc(N6CCCCC6)nc5)cn(C)c34)C[C@@H]2N1C(=O)NCc1ccccc1 [Compound G-35] | 1.4 nM | 12200 nM | 34.9% | – | – | –
C=CCN1CC(=O)N2[C@@H](Cc3ccc(O)cc3)C(=O)N(Cc3cccc4c(C(=O)N5CCN(CC)CC5)cn(C)c34)C[C@@H]2N1C(=O)NCc1ccccc1 [Compound E-5, (6S,9aS)-2-allyl-N-benzyl-8-((3-(4-ethylpiperazine-1-carbonyl)-1-methyl-1H-indol-7-yl)methyl)-6-(4-hydroxybenzyl)-4,7-dioxooctahydro-1H-pyrazino[2,1-c][1,2,4]-triazine-1-carboxamide] | 11.6 nM | 8040 nM | – | 68 µg/mL (≈ 92.8 µM) | 4530 ng·h/mL | 1.59 h
C=CCN1CC(=O)N2[C@@H](Cc3ccc(O)cc3)C(=O)N(Cc3cccc4c(-c5ccc(NC(=O)NC6CCCCC6)cc5)cn(C)c34)C[C@@H]2N1C(=O)NCc1ccccc1 [Compound D-74] | 11.2 nM | > 25000 nM | 56.9% | – | – | –
C=CCN1CC(=O)N2C(CN(Cc3cccc4c(C(=O)Nc5ccc(N6CCOCC6)nc5)cn(C)c34)C(=O)[C@@H]2Cc2ccc(O)cc2)N1C(=O)NCc1ccccc1 (stereo partly drawn) [Compound G-36] | 1.3 nM | 21100 nM | 36% | – | – | –
C=CCN1CC(=O)N2[C@@H](Cc3ccc(O)cc3)C(=O)N(Cc3cccc4c(-c5ccc(C(=O)Nc6ccc(N7CCN(C(C)=O)CC7)cc6)cc5)cn(C)c34)C[C@@H]2N1C(=O)NCc1ccccc1 [Compound D-10] | 1.3 nM | > 25000 nM | 88% | – | – | –
C=CCN1CC(=O)N2C(Cc3ccc(O)cc3)C(=O)N(Cc3cccc4c(C(=O)Nc5ccc(N6CCN(c7ccccc7OC)CC6)nc5)cn(C)c34)CC2N1C(=O)NCc1ccccc1 (stereo not drawn) [Compound G-59] | 4.9 nM | > 25000 nM | 61.9% | – | – | –
C=CCN1CC(=O)N2[C@@H](Cc3ccc(O)cc3)C(=O)N(Cc3cccc4c(-c5ccc(NC(=O)Nc6ccccc6)nc5)cn(C)c34)C[C@@H]2N1C(=O)NCc1ccccc1 [Compound C, (6S,9aS)-2-allyl-N-benzyl-6-(4-hydroxybenzyl)-8-((1-methyl-3-(6-(3-phenylureido)pyridine-3-yl)-1H-indol-7-yl)methyl)-4,7-dioxooctahydro-1H-pyrazino[2,1-c][1,2,4]-triazine-1-carboxamide] | 9.5 nM | > 25000 nM | 64% | – | – | –
C=CCN1CC(=O)N2[C@@H](Cc3ccc(O)cc3)C(=O)N(Cc3cccc4c(-c5ccc(NC(=O)NCc6ccccc6)nc5)cn(C)c34)C[C@@H]2N1C(=O)NCc1ccccc1 [Compound D-93] | 16.1 nM | 20400 nM | 68.5% | – | – | –
C=CCN1CC(=O)N2C(Cc3ccc(O)cc3)C(=O)N(Cc3cccc4c(C(=O)Nc5ccc(N6CCN(Cc7ccc(OC)cc7)CC6)nc5)cn(C)c34)CC2N1C(=O)NCc1ccccc1 (stereo not drawn) [Compound G-60] | 6.5 nM | 21500 nM | 52.8% | – | – | –
C=CCN1CC(=O)N2[C@@H](Cc3ccc(O)cc3)C(=O)N(Cc3cccc4c(-c5ccc(NC(=O)Nc6ccc(OC)nc6)cc5)cn(C)c34)C[C@@H]2N1C(=O)NCc1ccccc1 [Compound D-77] | 6.5 nM | > 25000 nM | 65.4% | – | – | –
C=CCN1CC(=O)N2[C@@H](Cc3ccc(O)cc3)C(=O)N(Cc3cccc4c(-c5ccc(NC(=O)Nc6ccc(OC)nc6)cc5)cn(C)c34)C[C@@H]2N1C(=O)NCc1ccccc1 [Compound B, (6S,9aS)-2-allyl-N-benzyl-6-(4-hydroxybenzyl)-8-((3-(4-(3-(6-methoxypyridin-3-yl)ureido)phenyl)-1-methyl-1H-indol-7-yl)methyl)-4,7-dioxooctahydro-1H-pyrazino[2,1-c][1,2,4]-triazine-1-carboxamide] | 6.5 nM | > 25000 nM | 65% | – | – | –
C=CCN1CC(=O)N2[C@@H](Cc3ccc(O)cc3)C(=O)N(Cc3cccc4c(-c5ccc(NC(=O)Nc6ccccc6)cc5)cn(C)c34)C[C@@H]2N1C(=O)NCc1ccccc1 [Compound D-73] | 14.4 nM | > 25000 nM | 73.4% | – | – | –
C=CCN1CC(=O)N2[C@@H](Cc3ccc(O)cc3)C(=O)N(Cc3cccc4c(-c5ccc(NC(=O)Nc6ccccc6)nc5)cn(C)c34)C[C@@H]2N1C(=O)NCc1ccccc1 [Compound D-85] | 9.5 nM | > 25000 nM | 64.3% | – | – | –
C=CCN1CC(=O)N2[C@@H](Cc3ccc(O)cc3)C(=O)N(Cc3cccc4c(-c5ccc(NC(=S)NC(=O)OCC)nc5)cn(C)c34)C[C@@H]2N1C(=O)NCc1ccccc1 [Compound H-4] | 15 nM | > 25000 nM | 66.8% | – | – | –
C=CCN1CC(=O)N2[C@@H](Cc3ccc(O)cc3)C(=O)N(Cc3cccc4c(-c5ccc(C(=O)NN6CCN(C)CC6)cc5)cn(C)c34)C[C@@H]2N1C(=O)NCc1ccccc1 [Compound D-45] | 1.9 nM | 2510 nM | 49.4% | – | – | –
C=CCN1CC(=O)N2[C@@H](Cc3ccc(O)cc3)C(=O)N(Cc3cccc4c(-c5ccc(C(=O)NC6CCC(NC(=O)OC(C)(C)C)CC6)cc5)cn(C)c34)C[C@@H]2N1C(=O)NCc1ccccc1 (stereo partly drawn) [Compound D-31] | 1.5 nM | > 25000 nM | 107% | – | – | –
C=CCN1CC(=O)N2[C@@H](Cc3ccc(O)cc3)C(=O)N(Cc3cccc4c(C(=O)N5CC(N6CCN(C)CC6)C5)cn(C)c34)C[C@@H]2N1C(=O)NCc1ccccc1 [Compound E-71] | – | > 25000 nM | 67.2% | – | – | –
C=CCN1CC(=O)N2[C@@H](Cc3ccc(O)cc3)C(=O)N(Cc3cccc4c(-c5ccc(NC(=O)c6ccc(N)nc6)cc5)cn(C)c34)C[C@@H]2N1C(=O)NCc1ccccc1 [Compound D-69] | 1.1 nM | > 25000 nM | 65% | – | – | –
C=CCN1CC(=O)N2[C@@H](Cc3ccc(O)cc3)C(=O)N(Cc3cccc4c(C(=O)N5CCC(N6CCN(C)CC6)CC5)cn(C)c34)C[C@@H]2N1C(=O)NCc1ccccc1 [Compound E-19] | – | > 25000 nM | 73.4% | – | – | –
